{"source": "a melting point compilation (Tetko et al.; mined from patent text by program, amines drawn as free bases though some values may be those of a salt)", "note": "Non-standard residues stand in square brackets, D forms with d. Residues, ends and D or L forms follow the SMILES beside them. ξ: configuration not given here. *: point of attachment. ξPhe(4-NO2) = NC(Cc1ccc([N+](=O)[O-])cc1)C(=O)O; Boc = CC(C)(C)OC(=O)*; OBn = c1ccc(CO*)cc1", "data": [{"units": {"melting point": "°C"}, "values": [{"smiles": "CCCCOc1cc(/C=C(\\OCC)C(=O)O)ccc1OCCc1ccc(OS(C)(=O)=O)c(Cl)c1", "melting point": 113}, {"smiles": "CC(C)NCC(O)COc1cc(-c2ccccc2)nc2ccccc12", "note": "(racemic)", "melting point": "109 to 111"}, {"smiles": "Nc1c(C(F)(F)F)cc2[nH]c(=O)c(=O)[nH]c2c1Cl", "melting point": "> 360"}, {"smiles": "COc1ccc(N2CCN(c3c(C)c(C)c4c(c3C)C(N3CCN(Cc5ccccc5)CC3)C(C)(C)O4)CC2)cc1", "note": "(centres undefined)", "melting point": "112 to 116"}, {"smiles": "COC(=O)c1ccc([N+](=O)[O-])cc1S(=O)(=O)NC(C)(C)C", "melting point": "122 to 124"}, {"smiles": "Cc1cc(N)cc(C)c1S(=O)(=O)C[N+](=O)[O-]", "melting point": "132 to 133"}, {"smiles": "CN1CCN(c2cc3c(cc2F)c(=O)c(C(=O)O)cn3C2CSC2)CC1", "melting point": "231 to 237"}, {"smiles": "CC(=O)OC1CSC(Oc2ccc(-c3ccncc3)nc2F)C(OC(C)=O)C1OC(C)=O", "note": "(centres undefined)", "melting point": 164}, {"smiles": "CC(C)C1COc2ccccc2O1", "note": "(centres undefined)", "melting point": "124 to 125"}, {"smiles": "S=C1Cc2c([nH]c3ccc(Br)cc23)-c2ccccc2N1", "melting point": "> 330"}, {"smiles": "CC(C)(CO)NS(=O)(=O)c1cc([N+](=O)[O-])c(Cl)s1", "melting point": 113}, {"smiles": "CCCN(c1nc(-c2ccc(Cl)cc2Cl)c(C=O)s1)C(C)c1ccncc1", "note": "(centres undefined)", "melting point": 114}, {"smiles": "CCOC(=O)C#CC(C)(C)OC(N)=O", "melting point": "111 to 114"}, {"smiles": "CC1(C)NC(=O)N(CC(O)Cc2cc(C(C)(C)C)c(O)c(C(C)(C)C)c2)C1=O", "note": "(centres undefined)", "melting point": "175 to 176"}, {"smiles": "Nc1cccnc1Nc1cccc(-c2cccnc2)c1", "melting point": "159 to 160"}, {"smiles": "Cc1[nH]c2ccc(CCN3CCCC3)cc2c1C(=O)OCc1ccccc1", "melting point": "76 to 78"}, {"smiles": "CCOC(=O)C(C(=O)Nc1nccs1)C(=O)c1cccc(C(F)(F)F)c1NC(=O)C(Cl)C(C)C", "note": "(centres undefined)", "melting point": 160}, {"smiles": "Cc1ccccc1C(=O)Nc1ccc(C(=O)N2Cc3ccccc3C(=O)c3ccccc32)cc1", "melting point": "115 to 119"}, {"smiles": "COC(=O)C(=O)c1ccnc(NC=O)n1", "melting point": "143 to 144"}, {"smiles": "Clc1ncccc1-c1nc2cccnc2o1", "melting point": "140 to 141"}, {"smiles": "O=C1CCCN1C(=O)NCCCN1CC=C(c2ccc(Cl)c(Cl)c2)CC1", "melting point": 136}, {"smiles": "COC(=O)C(C)NC(=O)c1cc2cc(Cl)ccc2[nH]1", "note": "(single isomer, unassigned; (+))", "melting point": "199 to 201"}, {"smiles": "CC1Cc2c([nH]c3ccccc23)-c2nc3c(c(=O)n21)CCCC3", "note": "(centres undefined)", "melting point": 232}, {"smiles": "CN1C(=O)C(C2=COc3ccccc3O2)=C(c2c[nH]c3cc(F)ccc23)C1=O", "melting point": 214}, {"smiles": "Nc1ncc(I)c(N)c1I", "melting point": 206}, {"smiles": "COC(=O)c1cccc2c1CCC2C#N", "note": "(centres undefined)", "melting point": "76.5 to 77.5"}, {"smiles": "CCCCCSc1ccc(-c2ncc(CCCCC)cn2)cc1", "melting point": 52.8}, {"smiles": "O=C(c1ccccc1)c1ccc(-c2nc(CCl)co2)cc1", "melting point": "138 to 139"}, {"smiles": "COc1cc(NC(=O)CCCCCN2CCN(c3ccccn3)CC2)c2nccc(C)c2c1", "melting point": "120 to 121"}, {"smiles": "CC(C)C1CC(O)OC(C(C)C2CC(=O)C3C4C(O)C(O)C5C(O)C(O)CCC5(C)C4CCC23C)C1", "note": "(centres undefined)", "melting point": "239 to 241"}, {"smiles": "OC(COc1ccn(-c2ccc(Cl)c(Cl)c2)n1)CN1CCOCC1", "note": "(centres undefined)", "melting point": "158 to 161"}, {"smiles": "O=C(CNC(=O)OC(c1ccccc1)c1ccccc1)Oc1c(Cl)c(Cl)c(Cl)c(Cl)c1Cl", "melting point": "171 to 172"}, {"smiles": "COc1ccc(S(=O)(=O)N2C(=O)C(c3ccccc3OC)(N3CCC[C@H]3C(=O)OC(C)(C)C)c3cc(Cl)ccc32)c(OC)c1", "note": "(some centres undefined)", "melting point": 136}, {"smiles": "CCN=C(NC(=O)OC(C)(C)C)Nc1cc(C(C)c2ccc(-c3ccccc3)c(F)c2)no1", "note": "(centres undefined)", "melting point": "87 to 92"}, {"smiles": "O=C1N=CN(CC2CCCCC2)C12CCN(Cc1ccccc1)CC2", "melting point": "117 to 118"}, {"smiles": "Oc1c(I)cccc1-c1c(Cl)cccc1Cl", "melting point": "51 to 53"}, {"smiles": "CC1(C)CC(=O)C(Cc2ccc(Cl)cc2)C(=O)C1", "melting point": "188 to 190"}, {"smiles": "Cc1cc(CCCCOCCCCCCNCc2c(CO)ccc(O)c2CO)cc(C)c1N", "melting point": "66 to 68"}, {"smiles": "CC1=C(OCC(C)C)CCC(C)(C)C1(O)C[Si](C)(C)C", "note": "(centres undefined)", "melting point": 50}, {"smiles": "N[C@@H](CSc1ccccc1[N+](=O)[O-])C(=O)O", "melting point": "168 to 171"}, {"smiles": "CC(C)(C)OC(=O)NC(Cc1ccc([N+](=O)[O-])cc1)C(=O)NCC(=O)OCc1ccccc1", "note": "(centres undefined) (Boc-[ξPhe(4-NO2)]-Gly-OBn)", "melting point": "115 to 118"}, {"smiles": "COC(=O)[C@@](C#N)(CCN(C)C)C(c1ccccc1OC)c1cccc2ccccc12", "note": "(single isomer, unassigned)", "melting point": "142 to 144"}, {"smiles": "O=CN(O)[C@@H](CCCO)CS(=O)(=O)c1ccc(Oc2ccc(OC(F)(F)F)cc2)cc1", "melting point": "85 to 86"}, {"smiles": "CN(C)c1nc(C(F)(F)F)cc(=O)n1-c1cc(F)c(C#N)cc1F", "melting point": 147}, {"smiles": "COc1cc2c(c(OC)c1OC)CCN(c1nc(N)c3cc(OC)c(OC)c(OC)c3n1)C2", "melting point": "193 to 195"}, {"smiles": "O=C(O)CCCCCCCCCCCCC(=O)ON1C(=O)CCC1=O", "melting point": "116 to 118"}, {"smiles": "O=C(O)C(Cc1ccccc1)Oc1ccc2cc(-c3csc(-c4ccccc4)n3)ccc2c1", "note": "(centres undefined)", "melting point": "154 to 160"}, {"smiles": "C=C=C[C@]12CCC(=O)C=C1C(=O)C[C@@H]1[C@@H]2CC[C@]2(C)C(=O)CC[C@@H]12", "melting point": "187 to 190"}, {"smiles": "CN(C)c1cccc(C(=O)NC2CCN(C(c3ccccc3)c3ccccc3)CC2)c1[N+](=O)[O-]", "melting point": 176}, {"smiles": "CCCCCS(=O)(=O)NC(=O)c1ccc2nc(C)n(Cc3ccc(NC)cc3Cl)c2n1", "melting point": "185 to 186"}, {"smiles": "COc1ccc([N+](=O)[O-])cc1NC(C)=O", "melting point": "172 to 177"}, {"smiles": "COC(=O)C1=C(C)NC2=C(C(=O)OC2)C1c1cccc(Br)c1", "note": "(centres undefined)", "melting point": "229 to 231"}, {"smiles": "Nc1nc2cc(F)ccc2s1", "melting point": 167}, {"smiles": "CS(=O)(=O)N(C(=O)c1ccccc1)c1cc2occc(=O)c2cc1Oc1ccccc1", "melting point": "164 to 166"}, {"smiles": "CC1(C)OC2c3cc(F)ccc3N3CCC2(CC3)O1", "note": "(centres undefined)", "melting point": "120 to 122"}, {"smiles": "O=C(O)Cc1ccc(OCCNC(=O)C2Cc3ccccc3N2S(=O)(=O)c2ccc(-c3ccc(F)cc3F)cc2)cc1", "note": "(centres undefined)", "melting point": "92 to 99"}, {"smiles": "COc1ccc2nc(-c3cc(C)c(OCCN4CCCC4)c(C)c3)[nH]c(=O)c2c1", "melting point": "201 to 203"}, {"smiles": "CC1(C)Oc2cc3nc(SCc4ccccn4)[nH]c3cc2O1", "melting point": "210 to 211"}, {"smiles": "CC(C)CNC(=O)c1cccnc1Oc1cccc(Cl)c1", "melting point": "86 to 87"}, {"smiles": "CNCc1cn(S(=O)(=O)c2cccnc2)c(-c2ccccc2)c1F", "melting point": "98 to 99"}, {"smiles": "COc1ccc(Cn2ccn(CC(=O)c3ccc(OC)c(OC4CCCC4)c3)c2=O)cc1", "melting point": 106}, {"smiles": "C#Cc1ccnc(-c2cc(N)c(C#C[Si](C)(C)C)cc2[N+](=O)[O-])c1", "melting point": "145 to 150"}, {"smiles": "Cc1cc(-n2cnc(CO)c2)ccc1C(C)C", "melting point": "98 to 102"}, {"smiles": "C=CCOc1ccc(C[C@@H](NC(C)=O)C(=O)OC)cc1", "melting point": 90}, {"smiles": "Cc1nc(C2CCC(NC(=O)OCC3c4ccccc4-c4ccccc43)CC2)cs1", "note": "(centres undefined)", "melting point": "140 to 141"}, {"smiles": "CCOC(=O)C1=C(C)Nc2n[nH]cc2C1c1cccc2nonc12", "note": "(centres undefined)", "melting point": 228}, {"smiles": "CC(C)c1c(C=CC2CC(O)CC(O)O2)n(CC2CCCCC2)c(=O)c2ccccc12", "note": "(mixture of isomers)", "melting point": "207 to 209"}, {"smiles": "C#CCC(Cc1cccnc1)(C(=O)O)S(=O)(=O)c1ccc(OC)cc1", "note": "(centres undefined)", "melting point": "119 to 121"}, {"smiles": "CC(=NOCC(=O)O)c1ccc(Cl)cc1", "melting point": 116}]}]}
